Data as given in patent publication US10961510B2, “Exosome active formulation for promoting endothelial cell angiogenesis, and preparation method and application” (INSTITUTE OF MICROCIRCULATION of the CHINESE ACADEMY OF …, priority 2018, dated 2021).

Tested on: human umbilical vein endothelial cells (HUVECs)
Assay: Angiogenesis (tube formation) ability of HUVECs on BME-coated 96-well plate, total branching length by Image J
Assay type: cell-based
Settings: 10 ng/mL TNF-α alone, 18 hours intervention, compared with the Con group, P=0.002
Experimental: The angiogenesis ability of human umbilical vein endothelial cells (HUVECs) was detected by using a 96-well plate coated with a basement membrane extract (BME). 50 μL of a BME solution was added in each well, which was placed in a cell incubator at 37° C. for 30 minutes to form a jelly substance. 10000 endothelial cells were inoculated in each well, and the volume of the endothelial cell culture medium was 100 μL. […]
According to the real-time observation for the angiogenesis morphology, when each of the above groups was subjected to intervention treatment for 18 hours, the angiogenesis morphology of each group reached a status for the optimum observation and quantitation. […]

## TNF-α
  endothelial cell angiogenesis (total branching length of each view field): significantly inhibit endothelial cell angiogenesis
